Experimental data published in BindingDB's records for doi:10.1021/jm00051a016 (University of Michigan, 1995).

Experiments:
Mu-type opioid receptor [1] = target: T1, Mu-type opioid receptor (Cavia porcellus, UniProt P97266); experiment: Agonist activity was assessed in an guinea pig ileum (GPI) smooth muscle bioassay
Mu-type opioid receptor [2] = target: T1, Mu-type opioid receptor; experiment: Binding affinity against mu opioid receptor using [3H]DAMGO in guinea pig ileum

T1 sequence (P97266 whole entry): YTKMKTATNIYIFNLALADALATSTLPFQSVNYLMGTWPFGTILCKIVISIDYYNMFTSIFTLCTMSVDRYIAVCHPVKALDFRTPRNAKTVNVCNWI

Compound `CN1C(=O)[C@H](CS)N(C(=O)[C@@H](N)Cc2ccc(O)cc2)C(=O)[C@@H](C(C)(C)S)NC(=O)[C@@H]1Cc1ccccc1` [4-[2-Amino-3-(4-hydroxy-phenyl)-propionyl]-9-benzyl-3-mercaptomethyl-6-(1-mercapto-1-methyl-ethyl)-1-methyl-[1,4,7]triazonane-2,5,8-trione] has an IC50 (Mu-type opioid receptor [1]) greater than 30 µM and a Ki (Mu-type opioid receptor [2]) greater than 10 µM.
